# Laboratory results as given in patent US20120029187A1, “HALOALKYLSULFONANILIDE DERIVATIVE” (Nissan Chemical Industries, Ltd., priority 2009, published 2012).
# Tests used:
# Assay type in all cases: in vivo
# ducksalad [1] = experiment: Test Example 2: herbicidal effects during the vegetation period under submerged conditions; details: treatment during the vegetation period under submerged conditions; dose 2.52 g/a
# In short: (§1)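 Barnyardgrass, bulrush and ducksalad were co-sown in alluvial soil flooded to 4 cm and grown in a greenhouse at 25 to 30° C. At the 1- or 2-leaf stage, water-diluted emulsifiable concentrates went onto the water surface at set doses (g/a). Herbicidal effect was scored three weeks later on a graded scale.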
# bulrush [2] = experiment: as above; details: treatment during the vegetation period under submerged conditions; dose 2.52 g/a
# In short: as §1
# barnyardgrass [3] = experiment: as above; details: treatment during the vegetation period under submerged conditions; dose 2.52 g/a
# In short: as §1
# transplanted rice = experiment: Test Example 1: preemergence treatment under submerged conditions, effect on crop; details: dose 2.52 g/a
# In short: (§2)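 Score 0–5 by mortality (5: ≥90%; 0: <5%), read 3 weeks post-application. Paddy-type cups: alluvial soil under 4 cm water, weeds seeded plus transplanted 2.5-leaf rice; diluted EC dosed onto water surface same day as sowing, g/a basis; greenhouse 25 to 30° C.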
# ducksalad [4] = experiment: Test Example 1: herbicidal effects in preemergence treatment under submerged conditions; details: dose 2.52 g/a
# In short: as §2
# bulrush [5] = experiment: as above; details: dose 2.52 g/a
# In short: as §2
# barnyardgrass [6] = experiment: as above; details: dose 2.52 g/a
# In short: as §2
# large crabgrass [7] = experiment: Test Example 4: herbicidal effect in foliage treatment; details: three weeks after application
# In short: (§3)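 Sowing in sterilized diluvial soil, ~1.5 cm cover; growth 14 d, 25–30° C greenhouse; foliar spray of water-diluted EC at predetermined g/a; scoring 3 wk later on graded scale.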
# posumbu knotweed [8] = experiment: as above; details: three weeks after application
# In short: as §3
# redroot pigweed [9] = experiment: as above; details: three weeks after application
# In short: as §3
# common lambsquater [10] = experiment: as above; details: three weeks after application
# In short: as §3
# Italian ryegrass [11] = experiment: as above; details: three weeks after application
# In short: as §3
# water foxtail [12] = experiment: as above; details: three weeks after application
# In short: as §3
# common chickweed [13] = experiment: as above; details: three weeks after application
# In short: as §3
# beadstraw = experiment: as above; details: three weeks after application
# In short: as §3
# wild oat [14] = experiment: as above; details: three weeks after application
# In short: as §3
# barnyardgrass [15] = experiment: as above; details: three weeks after application
# In short: as §3
# common ragweed [16] = experiment: as above; details: three weeks after application
# In short: as §3
# giant foxtail [17] = experiment: as above; details: three weeks after application
# In short: as §3
# velvetleaf [18] = experiment: as above; details: three weeks after application
# In short: as §3
# large crabgrass [19] = experiment: Test Example 3: herbicidal effects in soil treatment
# In short: (§4)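 Seeds were sown in sterilized diluvial soil and covered with about 1.5 cm of soil. Compounds, formulated as emulsifiable concentrates and diluted with water, were sprayed evenly over the soil surface at set doses in g/a. Herbicidal effect was scored on a rating scale three weeks later.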
# posumbu knotweed [20] = experiment: as above
# In short: as §4
# redroot pigweed [21] = experiment: as above
# In short: as §4
# common lambsquater [22] = experiment: as above; details: dose 6.3 g/a
# In short: as §4
# Italian ryegrass [23] = experiment: as above
# In short: as §4
# water foxtail [24] = experiment: as above
# In short: as §4
# common chickweed [25] = experiment: as above
# In short: as §4
# wild oat [26] = experiment: as above
# In short: as §4
# barnyardgrass [27] = experiment: as above
# In short: as §4
# common ragweed [28] = experiment: as above
# In short: as §4
# giant foxtail [29] = experiment: as above
# In short: as §4
# velvetleaf [30] = experiment: as above
# In short: as §4
smiles,measurement,setting,value
"CCOC(=O)N(c1ccccc1CN1CCOCC1=O)S(=O)(=O)C(F)(F)F [Compound I-2, 4-[2-(N-ethoxycarbonyl-N-trifluoromethanesulfonyl)aminobenzyl]-1,4-oxazinan-3-one]","C: ducksalad, herbicidal effect (evaluation scale 0-5)",ducksalad [1],5 (mortality of 90% or above (nearly complete death))
same,"B: bulrush, herbicidal effect (evaluation scale 0-5)",bulrush [2],5 (mortality of 90% or above (nearly complete death))
same,"A: barnyardgrass, herbicidal effect (evaluation scale 0-5)",barnyardgrass [3],5 (mortality of 90% or above (nearly complete death))
same,"a: transplanted rice, effect on crop (evaluation scale 0-5)",transplanted rice,1 (mortality of at least 5% and less than 20%)
same,"C: ducksalad, herbicidal effect (evaluation scale 0-5)",ducksalad [4],5 (mortality of 90% or above (nearly complete death))
same,"B: bulrush, herbicidal effect (evaluation scale 0-5)",bulrush [5],5 (mortality of 90% or above (nearly complete death))
same,"A: barnyardgrass, herbicidal effect (evaluation scale 0-5)",barnyardgrass [6],5 (mortality of 90% or above (nearly complete death))
same,"D: large crabgrass, herbicidal effect",large crabgrass [7]; dose 6.3 g/a,5 (mortality of 90% or above (nearly complete death))
same,"M: posumbu knotweed, herbicidal effect",posumbu knotweed [8]; dose 6.3 g/a,4 (mortality of at least 70% and less than 90%)
same,"K: redroot pigweed, herbicidal effect",redroot pigweed [9]; dose 6.3 g/a,3 (mortality of at least 40% and less than 70%)
same,"L: common lambsquater, herbicidal effect",common lambsquater [10]; dose 6.3 g/a,4 (mortality of at least 70% and less than 90%)
same,"H: Italian ryegrass, herbicidal effect",Italian ryegrass [11]; dose 6.3 g/a,4 (mortality of at least 70% and less than 90%)
same,"G: water foxtail, herbicidal effect",water foxtail [12]; dose 6.3 g/a,5 (mortality of 90% or above (nearly complete death))
same,"N: common chickweed, herbicidal effect",common chickweed [13]; dose 6.3 g/a,4 (mortality of at least 70% and less than 90%)
same,"O: beadstraw, herbicidal effect",beadstraw; dose 6.3 g/a,5 (mortality of 90% or above (nearly complete death))
same,"F: wild oat, herbicidal effect",wild oat [14]; dose 6.3 g/a,3 (mortality of at least 40% and less than 70%)
same,"A: barnyardgrass, herbicidal effect",barnyardgrass [15]; dose 6.3 g/a,5 (mortality of 90% or above (nearly complete death))
same,"J: common ragweed, herbicidal effect",common ragweed [16]; dose 6.3 g/a,3 (mortality of at least 40% and less than 70%)
same,"E: giant foxtail, herbicidal effect",giant foxtail [17]; dose 6.3 g/a,5 (mortality of 90% or above (nearly complete death))
same,"I: velvetleaf, herbicidal effect",velvetleaf [18]; dose 6.3 g/a,5 (mortality of 90% or above (nearly complete death))
same,"D: large crabgrass, herbicidal effect (evaluation scale 0-5)",large crabgrass [19]; dose 6.3 g/a,5 (mortality of 90% or above (nearly complete death))
same,"M: posumbu knotweed, herbicidal effect (evaluation scale 0-5)",posumbu knotweed [20]; dose 6.3 g/a,5 (mortality of 90% or above (nearly complete death))
same,"K: redroot pigweed, herbicidal effect (evaluation scale 0-5)",redroot pigweed [21]; dose 6.3 g/a,5 (mortality of 90% or above (nearly complete death))
same,"L: common lambsquater, herbicidal effect (evaluation scale 0-5)",common lambsquater [22],5 (mortality of 90% or above (nearly complete death))
same,"H: Italian ryegrass, herbicidal effect (evaluation scale 0-5)",Italian ryegrass [23]; dose 6.3 g/a,5 (mortality of 90% or above (nearly complete death))
same,"G: water foxtail, herbicidal effect (evaluation scale 0-5)",water foxtail [24]; dose 6.3 g/a,5 (mortality of 90% or above (nearly complete death))
same,"N: common chickweed, herbicidal effect (evaluation scale 0-5)",common chickweed [25]; dose 6.3 g/a,5 (mortality of 90% or above (nearly complete death))
same,"F: wild oat, herbicidal effect (evaluation scale 0-5)",wild oat [26]; dose 6.3 g/a,3 (mortality of at least 40% and less than 70%)
same,"A: barnyardgrass, herbicidal effect (evaluation scale 0-5)",barnyardgrass [27]; dose 6.3 g/a,5 (mortality of 90% or above (nearly complete death))
same,"J: common ragweed, herbicidal effect (evaluation scale 0-5)",common ragweed [28]; dose 6.3 g/a,5 (mortality of 90% or above (nearly complete death))
same,"E: giant foxtail, herbicidal effect (evaluation scale 0-5)",giant foxtail [29]; dose 6.3 g/a,5 (mortality of 90% or above (nearly complete death))
same,"I: velvetleaf, herbicidal effect (evaluation scale 0-5)",velvetleaf [30]; dose 6.3 g/a,5 (mortality of 90% or above (nearly complete death))
CCCOC(=O)N(c1ccccc1CN1COC(C)(C)CC1=O)S(=O)(=O)C(F)(F)F [II-24],"C: ducksalad, herbicidal effect (evaluation scale 0-5)",ducksalad [1],5 (mortality of 90% or above (nearly complete death))
same,"B: bulrush, herbicidal effect (evaluation scale 0-5)",bulrush [2],5 (mortality of 90% or above (nearly complete death))
same,"A: barnyardgrass, herbicidal effect (evaluation scale 0-5)",barnyardgrass [3],5 (mortality of 90% or above (nearly complete death))
same,"a: transplanted rice, effect on crop (evaluation scale 0-5)",transplanted rice,0 (mortality of less than 5% (almost ineffective))
same,"C: ducksalad, herbicidal effect (evaluation scale 0-5)",ducksalad [4],5 (mortality of 90% or above (nearly complete death))
same,"B: bulrush, herbicidal effect (evaluation scale 0-5)",bulrush [5],5 (mortality of 90% or above (nearly complete death))
same,"A: barnyardgrass, herbicidal effect (evaluation scale 0-5)",barnyardgrass [6],5 (mortality of 90% or above (nearly complete death))
same,"D: large crabgrass, herbicidal effect",large crabgrass [7]; dose 3.2 g/a,4 (mortality of at least 70% and less than 90%)
same,"M: posumbu knotweed, herbicidal effect",posumbu knotweed [8]; dose 3.2 g/a,3 (mortality of at least 40% and less than 70%)
same,"K: redroot pigweed, herbicidal effect",redroot pigweed [9]; dose 3.2 g/a,0 (mortality of less than 5% (almost ineffective))
same,"L: common lambsquater, herbicidal effect",common lambsquater [10]; dose 3.2 g/a,0 (mortality of less than 5% (almost ineffective))
same,"H: Italian ryegrass, herbicidal effect",Italian ryegrass [11]; dose 3.2 g/a,4 (mortality of at least 70% and less than 90%)
same,"G: water foxtail, herbicidal effect",water foxtail [12]; dose 3.2 g/a,5 (mortality of 90% or above (nearly complete death))
same,"N: common chickweed, herbicidal effect",common chickweed [13]; dose 3.2 g/a,4 (mortality of at least 70% and less than 90%)
same,"O: beadstraw, herbicidal effect",beadstraw; dose 3.2 g/a,5 (mortality of 90% or above (nearly complete death))
same,"F: wild oat, herbicidal effect",wild oat [14]; dose 3.2 g/a,0 (mortality of less than 5% (almost ineffective))
same,"A: barnyardgrass, herbicidal effect",barnyardgrass [15]; dose 3.2 g/a,5 (mortality of 90% or above (nearly complete death))
same,"J: common ragweed, herbicidal effect",common ragweed [16]; dose 3.2 g/a,3 (mortality of at least 40% and less than 70%)
same,"E: giant foxtail, herbicidal effect",giant foxtail [17]; dose 3.2 g/a,4 (mortality of at least 70% and less than 90%)
same,"I: velvetleaf, herbicidal effect",velvetleaf [18]; dose 3.2 g/a,4 (mortality of at least 70% and less than 90%)
same,"D: large crabgrass, herbicidal effect (evaluation scale 0-5)",large crabgrass [19]; dose 3.2 g/a,4 (mortality of at least 70% and less than 90%)
same,"M: posumbu knotweed, herbicidal effect (evaluation scale 0-5)",posumbu knotweed [20]; dose 3.2 g/a,4 (mortality of at least 70% and less than 90%)
same,"K: redroot pigweed, herbicidal effect (evaluation scale 0-5)",redroot pigweed [21]; dose 3.2 g/a,0 (mortality of less than 5% (almost ineffective))
same,"H: Italian ryegrass, herbicidal effect (evaluation scale 0-5)",Italian ryegrass [23]; dose 3.2 g/a,5 (mortality of 90% or above (nearly complete death))
same,"G: water foxtail, herbicidal effect (evaluation scale 0-5)",water foxtail [24]; dose 3.2 g/a,5 (mortality of 90% or above (nearly complete death))
same,"N: common chickweed, herbicidal effect (evaluation scale 0-5)",common chickweed [25]; dose 3.2 g/a,3 (mortality of at least 40% and less than 70%)
same,"F: wild oat, herbicidal effect (evaluation scale 0-5)",wild oat [26]; dose 3.2 g/a,0 (mortality of less than 5% (almost ineffective))
same,"A: barnyardgrass, herbicidal effect (evaluation scale 0-5)",barnyardgrass [27]; dose 3.2 g/a,4 (mortality of at least 70% and less than 90%)
same,"J: common ragweed, herbicidal effect (evaluation scale 0-5)",common ragweed [28]; dose 3.2 g/a,4 (mortality of at least 70% and less than 90%)
same,"E: giant foxtail, herbicidal effect (evaluation scale 0-5)",giant foxtail [29]; dose 3.2 g/a,3 (mortality of at least 40% and less than 70%)
same,"I: velvetleaf, herbicidal effect (evaluation scale 0-5)",velvetleaf [30]; dose 3.2 g/a,5 (mortality of 90% or above (nearly complete death))
